Data reported in US4435396A, “Antiulcer 2-guanidino-4-(2-substituted-amino-4-imidazolyl)thiazoles and process therefor” (Pfizer Inc., priority 1982, dated 1984).
Where “and” joins values, the source holds several entries; their conditions need not be identical. Equal values may be shown once.

What was measured:
[1] = tested on: ethanol-induced ulceration in rats; experiment: Inhibition of ethanol-induced ulceration in rats; format: in vivo, rat; conditions: oral dose of 30 mg/kg; for inhibition in vivo at 30 mg/kg: Rattus norvegicus, po
Experimental: The antiulcer activity of the products of this invention was also determined by an ethanol-induced rat ulcer assay. […] One hour after the ethanol challenge the animals (8/group) are killed and the stomachs examined for the presence of lesions. After sacrifice the abdomen is opened and a locking hemostat placed at the pylorus. Six ml of a 4% solution of formaldehyde was injected into the stomach with a gastric feeding tube and a second locking hemostat was used to seal the esophagus. The stomach was removed, opened along the greater curvature and examined for ulceration.
The scoring system used to quantitate the ethanol-induced lesions is given below.
For each group of animals an ulcer index is calculated as follows:
Ulceration Index=(the sum of the scores of the group)×(the sum of the number of ulcers in the group)×(the fraction of the group having any incidence of ulceration).
The percentage inhibition of ulcers is calculated as follows:
% Inhibition=100×[(ulcer index controls)-(ulcer index
drug-treated)].div.(ulcer index controls).

Heidenhain pouch dogs = experiment: Gastric acid antisecretory activity in pentagastrin-stimulated conscious Heidenhain pouch dogs; format: in vivo, dog; conditions: intravenously
Experimental: The gastric acid antisecretory activity of compounds of the present invention was determined in overnight fasted, conscious Heidenhain pouch dogs. Pentagastrin (Pentavolon-Ayerst) was used to stimulate acid output by continuous infusion into a superficial leg vein at doses earlier determined to stimulate near maximal acid output from the gastric pouch. Gastric juice was collected at 30 minute intervals following the start of a pentagastrin infusion and measured to the nearest 0.1 ml. Ten collections were taken for each dog during an experiment. Acid concentration was determined by tritrating 1.0 ml of gastric juice to pH 7.4 with 0.1 N sodium hydroxide using an Autoburette and a glass electrode pH meter (Radiometer).
Drug or vehicle was given intravenously 90 minutes following the start of the pentagastrin infusion, at a dose of 1 mg/kg or less. Gastric acid antisecretory effects were calculated by comparing the lowest acid output after drug administration with the mean acid output immediately before drug.

H2 -receptor = molecular target: T1, H2 -receptor (Cavia porcellus, UniProt P47747); experiment: Histamine-H2 antagonist activity in isolated guinea pig right atria; format: cell-based; conditions: histamine dose-response, read-out: pA2 (apparent dissociation constant of the H2-receptor antagonist) (converted)
T1 construct: the heart removed and the right atria dissected free; from tissue; host or cells: guinea pig right atria
T1 sequence (P47747 whole entry): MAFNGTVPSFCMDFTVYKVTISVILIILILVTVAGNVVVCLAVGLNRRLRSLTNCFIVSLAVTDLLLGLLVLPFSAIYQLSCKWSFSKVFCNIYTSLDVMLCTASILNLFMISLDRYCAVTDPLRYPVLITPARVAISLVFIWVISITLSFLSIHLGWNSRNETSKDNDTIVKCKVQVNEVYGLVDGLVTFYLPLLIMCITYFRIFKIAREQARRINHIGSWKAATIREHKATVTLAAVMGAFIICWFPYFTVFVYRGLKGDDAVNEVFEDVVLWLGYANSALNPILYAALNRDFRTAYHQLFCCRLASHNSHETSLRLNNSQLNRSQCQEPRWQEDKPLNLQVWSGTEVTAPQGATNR
Experimental: The histamine-H2 antagonist activity of compounds of the present invention was determined by the following procedure:
Guinea pigs are killed rapidly with a blow to the head, the heart removed and the right atria dissected free. Atria are suspended, isometrically, in a temperature-controlled (32°±2°) tissue bath (10 ml) containing oxygenated (95% O2; 5% CO2) Krebs-Henseleit buffer (pH 7.4) and are allowed to stabilize approximately one hour during which time the tissue bath is flushed several times. Individual atrial contractions are followed with a force-displacement transducer connected to a cardiotachometer and Grass polygraph recorder. After obtaining a dose-response curve to histamine, the bath containing each atrium is flushed several times with fresh buffer and the atria reequilibrated to basal rates. Following the return to basal rate, test compounds are addded at selected final concentrations and the histamine dose-response curve is again determined in the presence of antagonist. Results are expressed as dose-ratios, the ratio of histamine concentrations required to produce one-half of maximal stimulation in the presence and absence of antagonist, and the apparent dissociation constant of the H2 -receptor antagonist pA2, is determined.

[2] = dose of 1 mg/kg, pentagastrin-stimulated Heidenhain pouch dogs

Question: Which “inhibition of ethanol-induced ulceration” value [1] does the source give for `NC(N)=Nc1nc(-c2c[nH]c(N3CCOCC3)n2)cs1` [product aa] here?
Answer: no significant activity

Question: With `NC(N)=Nc1nc(-c2c[nH]c(N3CCCC3)n2)cs1` [product bb] as the molecule, how does the inhibition in vivo at 30 mg/kg [1] read?
Answer: ≥ 19%

Question: For `NC(N)=Nc1nc(-c2c[nH]c(N3CCCCC3)n2)cs1` [product cc], which inhibition in vivo at 30 mg/kg [1] is on record?
Answer: ≥ 19%

Question: And the “inhibition of gastric secretion” value (Heidenhain pouch dogs; 0.1 mg/kg, Heidenhain pouch dogs)?
Answer: 72%

Question: And the “inhibition of gastric secretion” value (Heidenhain pouch dogs; [2])?
Answer: at least 21%

Question: How did the inhibition in vivo at 30 mg/kg [1] turn out when `CC(C)CCNc1nc(-c2csc(N=C(N)N)n2)c[nH]1` [product m] was run?
Answer: ≥ 19%

Question: With `NC(N)=Nc1nc(-c2c[nH]c(NC3CC3)n2)cs1` [product n] as the molecule, how does the inhibition in vivo at 30 mg/kg [1] read?
Answer: 7 to 13%

Question: What about the Kb (H2 -receptor) of the same molecule?
Answer: ≤ 1260 nM and ≤ 100 nM and 1.58 nM

Question: And the “inhibition of gastric secretion” value (Heidenhain pouch dogs; [2])?
Answer: at least 21%

Question: What about the “inhibition of gastric secretion” value (Heidenhain pouch dogs; dose of 3 microg/kg, Heidenhain pouch dogs) of the same molecule?
Answer: 42%

Question: `NC(N)=Nc1nc(-c2c[nH]c(NC3CCCC3)n2)cs1` [product o] was tested. Which “inhibition of ethanol-induced ulceration” value [1] did it give?
Answer: no significant activity

Question: What about the Kb (H2 -receptor) of the same molecule?
Answer: ≤ 1260 nM

Question: `NC(N)=Nc1nc(-c2c[nH]c(NC3CCCCC3)n2)cs1` [product p] was tested. Which inhibition in vivo at 30 mg/kg [1] did it give?
Answer: 7 to 13%

Question: `NC(N)=Nc1nc(-c2c[nH]c(NCc3ccccc3)n2)cs1` [product q] was tested. Which inhibition in vivo at 30 mg/kg [1] did it give?
Answer: 7 to 13%

Question: How did the “inhibition of gastric secretion” value (Heidenhain pouch dogs; [2]) turn out when `NC(N)=Nc1nc(-c2c[nH]c(NCCc3ccccc3)n2)cs1` [product r] was run?
Answer: at least 21%

Question: For `NC(N)=Nc1nc(-c2c[nH]c(NCCCc3ccccc3)n2)cs1` [product s], which inhibition in vivo at 30 mg/kg [1] is on record?
Answer: 86 to 100%

Question: And the Kb (H2 -receptor)?
Answer: ≤ 100 nM

Question: Which results are given for `NC(N)=Nc1nc(-c2c[nH]c(NCCCCc3ccccc3)n2)cs1` [product t]?
Answer: inhibition in vivo at 30 mg/kg [1]: 86 to 100%; Kb (H2 -receptor): ≤ 100 nM

Question: `NC(N)=Nc1nc(-c2c[nH]c(NCCc3ccncc3)n2)cs1` [product u] was tested. Which inhibition in vivo at 30 mg/kg [1] did it give?
Answer: 21 to 51%

Question: Which “inhibition of ethanol-induced ulceration” value [1] does the source give for `NC(N)=Nc1nc(-c2c[nH]c(NCCc3ccccn3)n2)cs1` [product v] here?
Answer: no significant activity

Question: For `NC(N)=Nc1nc(-c2c[nH]c(NCCc3ccc(Cl)cc3)n2)cs1` [product w], which Kb (H2 -receptor) is on record?
Answer: ≤ 100 nM

Question: And the “inhibition of gastric secretion” value (Heidenhain pouch dogs; the same (1 mg/kg) or a lower dose, Heidenhain pouch dogs)?
Answer: at least 97%

Question: With `CN(C)c1nc(-c2csc(N=C(N)N)n2)c[nH]1` [product x] as the molecule, how does the “inhibition of ethanol-induced ulceration” value [1] read?
Answer: no significant activity

Question: For `CCN(C)c1nc(-c2csc(N=C(N)N)n2)c[nH]1` [product y], which inhibition in vivo at 30 mg/kg [1] is on record?
Answer: ≥ 19%

Question: With `CCN(CC)c1nc(-c2csc(N=C(N)N)n2)c[nH]1` [product z] as the molecule, how does the inhibition in vivo at 30 mg/kg [1] read?
Answer: ≥ 19%
